Data published in ChEMBL document CHEMBL1909046, “DrugMatrix in vitro pharmacology data”.

Key:
[1] = biological target: Beta-1 adrenergic receptor (Homo sapiens, UniProt P08588); test: DRUGMATRIX: Adrenergic beta1 radioligand binding (ligand: [125I] Cyanopindolol); assay type: cell membranes, CHO-K1, Membrane; settings: cho-k1; Not Active = under 50% inhibition at 10 µM
[2] = biological target: T1, Vasoactive intestinal polypeptide receptor 1 (Homo sapiens, UniProt P32241); assay type: cell membranes, Membrane; settings: ht-29; note: in other assays of this panel Not Active means under 50% inhibition at 10 µM
T1 sequence (P32241 whole entry): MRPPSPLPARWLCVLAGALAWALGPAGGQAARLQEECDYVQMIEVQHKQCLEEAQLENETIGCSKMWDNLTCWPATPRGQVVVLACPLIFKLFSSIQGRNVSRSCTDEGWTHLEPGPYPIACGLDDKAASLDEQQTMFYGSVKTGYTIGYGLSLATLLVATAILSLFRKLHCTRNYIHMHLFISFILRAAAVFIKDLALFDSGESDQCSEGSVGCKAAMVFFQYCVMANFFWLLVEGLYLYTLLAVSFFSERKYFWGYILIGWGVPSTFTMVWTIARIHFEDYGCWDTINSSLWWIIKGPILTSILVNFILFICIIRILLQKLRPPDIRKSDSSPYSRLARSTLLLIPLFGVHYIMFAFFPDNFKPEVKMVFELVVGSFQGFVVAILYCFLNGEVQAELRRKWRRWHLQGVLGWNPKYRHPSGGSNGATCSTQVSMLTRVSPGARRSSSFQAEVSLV

[3] = DRUGMATRIX: GABAA, Chloride Channel, TBOB radioligand binding (ligand: [3H] TBOB); assay type: cell membranes, Rattus norvegicus, Wistar, Cerebral cortex, Membrane; settings: Not Active = under 50% inhibition at 10 µM
[4] = DRUGMATRIX: Glutamate, NMDA, Agonism radioligand binding (ligand: [3H] CGP-39653); assay type: cell membranes, Rattus norvegicus, Wistar, Cerebral cortex, Membrane; settings: Not Active = under 50% inhibition at 10 µM
Histamine H2 receptor = Histamine H2 receptor (Homo sapiens, UniProt P25021); assay type: cell membranes, CHO-K1, Membrane; settings: cho-k1; note: in other assays of this panel Not Active means under 50% inhibition at 10 µM
Sequence of Histamine H2 receptor (P25021 whole entry): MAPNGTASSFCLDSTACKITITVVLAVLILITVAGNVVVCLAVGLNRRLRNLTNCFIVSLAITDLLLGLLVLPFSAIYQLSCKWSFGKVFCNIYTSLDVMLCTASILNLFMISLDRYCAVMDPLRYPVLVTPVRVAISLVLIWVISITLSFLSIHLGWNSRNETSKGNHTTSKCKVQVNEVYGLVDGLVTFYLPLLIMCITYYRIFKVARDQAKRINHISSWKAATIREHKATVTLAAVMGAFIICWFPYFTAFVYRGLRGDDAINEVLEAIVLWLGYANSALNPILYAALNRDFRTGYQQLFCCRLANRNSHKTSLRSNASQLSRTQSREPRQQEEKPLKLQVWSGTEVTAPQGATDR

[5] = biological target: T2, Angiotensin-converting enzyme (Oryctolagus cuniculus, UniProt P12822); assay type: tissue-based, Lung;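 note: enzymatic inhibition of angiotensin-converting enzyme measured with FAPGG as the substrate; in other assays of this panel Not Active means under 50% inhibition at 10 µM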
T2 sequence (P12822 whole entry): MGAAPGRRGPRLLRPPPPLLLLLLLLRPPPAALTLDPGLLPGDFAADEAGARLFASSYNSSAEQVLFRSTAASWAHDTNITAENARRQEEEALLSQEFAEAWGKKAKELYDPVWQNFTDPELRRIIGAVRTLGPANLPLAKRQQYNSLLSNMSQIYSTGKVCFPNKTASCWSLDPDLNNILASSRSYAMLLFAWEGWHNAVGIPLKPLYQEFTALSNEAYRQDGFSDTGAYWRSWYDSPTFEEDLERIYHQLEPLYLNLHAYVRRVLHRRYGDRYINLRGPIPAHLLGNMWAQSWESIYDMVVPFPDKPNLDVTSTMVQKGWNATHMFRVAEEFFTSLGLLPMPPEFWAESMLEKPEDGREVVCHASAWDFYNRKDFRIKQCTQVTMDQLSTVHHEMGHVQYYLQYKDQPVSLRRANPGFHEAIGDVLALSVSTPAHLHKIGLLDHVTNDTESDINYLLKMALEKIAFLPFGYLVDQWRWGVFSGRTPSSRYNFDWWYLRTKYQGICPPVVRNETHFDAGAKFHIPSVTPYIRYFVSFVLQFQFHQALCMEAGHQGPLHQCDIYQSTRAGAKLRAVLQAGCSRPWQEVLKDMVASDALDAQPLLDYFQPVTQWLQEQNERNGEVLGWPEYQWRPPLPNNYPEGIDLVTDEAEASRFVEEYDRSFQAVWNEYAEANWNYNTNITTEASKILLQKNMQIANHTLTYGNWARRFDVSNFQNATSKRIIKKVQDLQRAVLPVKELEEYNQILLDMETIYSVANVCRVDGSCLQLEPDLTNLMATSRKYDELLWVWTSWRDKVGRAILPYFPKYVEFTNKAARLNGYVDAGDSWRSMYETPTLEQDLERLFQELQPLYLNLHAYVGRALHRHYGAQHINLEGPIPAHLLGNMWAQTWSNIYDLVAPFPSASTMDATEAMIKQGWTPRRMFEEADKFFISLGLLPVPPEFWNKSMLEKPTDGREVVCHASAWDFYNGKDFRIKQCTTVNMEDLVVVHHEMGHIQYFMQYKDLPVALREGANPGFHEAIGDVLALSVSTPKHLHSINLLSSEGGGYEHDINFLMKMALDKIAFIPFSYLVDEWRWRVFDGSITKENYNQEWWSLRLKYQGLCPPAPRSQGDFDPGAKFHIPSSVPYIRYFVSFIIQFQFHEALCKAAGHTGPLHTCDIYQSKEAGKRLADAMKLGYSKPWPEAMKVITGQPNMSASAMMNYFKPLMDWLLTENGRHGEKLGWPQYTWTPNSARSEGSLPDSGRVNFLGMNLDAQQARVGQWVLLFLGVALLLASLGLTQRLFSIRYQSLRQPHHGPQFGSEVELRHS

Adenosine receptor A2a = Adenosine receptor A2a (Homo sapiens, UniProt P29274); test: DRUGMATRIX: Adenosine A2A radioligand binding (ligand: […]); assay type: cell membranes, HEK293, Membrane; settings: Not Active = under 50% inhibition at 10 µM
Sequence of Adenosine receptor A2a (P29274 whole entry): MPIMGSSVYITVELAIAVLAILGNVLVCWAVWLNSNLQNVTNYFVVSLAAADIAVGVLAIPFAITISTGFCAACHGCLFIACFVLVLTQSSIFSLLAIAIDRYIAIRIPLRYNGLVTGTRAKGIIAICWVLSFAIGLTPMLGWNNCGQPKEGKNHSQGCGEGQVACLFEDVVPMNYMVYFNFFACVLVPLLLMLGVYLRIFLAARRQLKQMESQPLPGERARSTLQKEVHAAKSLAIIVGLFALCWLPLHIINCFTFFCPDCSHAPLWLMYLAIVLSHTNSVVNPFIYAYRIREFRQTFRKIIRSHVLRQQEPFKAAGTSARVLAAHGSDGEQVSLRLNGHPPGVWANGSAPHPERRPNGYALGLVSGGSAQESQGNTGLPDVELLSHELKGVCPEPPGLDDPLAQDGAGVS

Sequence of Beta-1 adrenergic receptor (P08588 whole entry): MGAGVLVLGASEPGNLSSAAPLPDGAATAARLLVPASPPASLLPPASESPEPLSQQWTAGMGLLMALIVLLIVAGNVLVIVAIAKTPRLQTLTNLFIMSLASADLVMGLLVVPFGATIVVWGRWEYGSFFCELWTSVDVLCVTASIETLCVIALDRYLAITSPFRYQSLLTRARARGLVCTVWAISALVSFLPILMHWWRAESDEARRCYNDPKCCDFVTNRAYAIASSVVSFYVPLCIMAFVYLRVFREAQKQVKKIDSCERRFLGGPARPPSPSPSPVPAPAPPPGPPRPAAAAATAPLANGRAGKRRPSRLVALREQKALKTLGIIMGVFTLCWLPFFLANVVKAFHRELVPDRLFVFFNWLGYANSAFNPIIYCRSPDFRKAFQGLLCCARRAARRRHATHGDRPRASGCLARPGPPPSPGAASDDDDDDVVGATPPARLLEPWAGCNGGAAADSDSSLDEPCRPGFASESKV

SMILES | IC50 [1] | IC50 [2] | IC50 [3] | Ki [3] | IC50 [4] | Ki [4] | IC50 (Histamine H2 receptor) | IC50 [5] | IC50 (Adenosine receptor A2a; hek293) | IC50 (Adenosine receptor A2a; read-out: IC50) | Ki (Adenosine receptor A2a; read-out: Ki)
COC1=C(OC)C(=O)C(CCCCCCCCCCO)=C(C)C1=O [IDEBENONE] | Not Active | Not Active | Not Active | Not Active | Not Active | Not Active | Not Active | Not Active | Not Active |  | 
CC(C)NNC(=O)c1ccncc1 [IPRONIAZID] | Not Active | Not Active | Not Active | Not Active | Not Active | Not Active | Not Active | Not Active | Not Active |  | 
Cc1c(OCC(F)(F)F)ccnc1C[S+]([O-])c1nc2ccccc2[nH]1 (stereo not given) [LANSOPRAZOLE] | Not Active | Not Active | Not Active | Not Active | Not Active | Not Active | Not Active | Not Active | Not Active |  | 
O=c1cc(N2CCOCC2)oc2c(-c3ccccc3)cccc12 [LY-294002] | Not Active | Not Active | Not Active | Not Active | Not Active | Not Active | Not Active | Not Active | Not Active |  | 
COc1ccc2[nH]cc(CCNC(C)=O)c2c1 [MELATONIN] | Not Active | Not Active | Not Active | Not Active | Not Active | Not Active | Not Active | Not Active | Not Active |  | 
NC(=O)C[S+]([O-])C(c1ccccc1)c1ccccc1 (stereo not given) [MODAFINIL] | Not Active | Not Active | Not Active | Not Active | Not Active | Not Active | Not Active | Not Active | Not Active |  | 
CCN(CC)CCOCCC1=CCC2CC1C2(C)C (stereo not given) [MYRTECAINE] | Not Active | Not Active | Not Active | Not Active | Not Active | Not Active | Not Active | Not Active | Not Active |  | 
O=C(O)c1cccnc1Nc1cccc(C(F)(F)F)c1 [NIFLUMIC ACID] | Not Active | Not Active | Not Active | Not Active | Not Active | Not Active | Not Active | Not Active | Not Active |  | 
O=C(N/N=C/c1ccc([N+](=O)[O-])o1)c1cc([N+](=O)[O-])cc([N+](=O)[O-])c1O [NIFURSOL] | Not Active | Not Active | Not Active | Not Active | Not Active | Not Active | Not Active | Not Active | Not Active |  | 
COC(=O)Nc1nc2ccc(C(=O)c3cccs3)cc2[nH]1 [NOCODAZOLE] | Not Active | Not Active | Not Active | Not Active | Not Active | Not Active | Not Active | Not Active |  | 7.51 µM | 4.22 µM
C#CC1(O)CC[C@H]2[C@@H]3CCC4=CC(=O)CC[C@@H]4[C@H]3CC[C@@]21CC (stereo not given in full) [NORGESTREL] | Not Active | Not Active | Not Active | Not Active | Not Active | Not Active | Not Active | Not Active | Not Active |  | 
